# From PubChem BioAssay (NCI)
#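 Exposure lasted 48 hours, with cells grown in 96-well plates and compounds tested at five concentrations. GI50 is the concentration that inhibits growth by half. The concentration for full growth arrest is given as TGI.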
# Experiments:
# Assay in all cases: NCI-60 cell line screen, 48 h
# SK-OV-3 ovarian = system: SK-OV-3 ovarian
# NCI/ADR-RES ovarian = system: NCI/ADR-RES ovarian
# EKVX NSCLC = system: EKVX NSCLC
# OVCAR-3 ovarian = system: OVCAR-3 ovarian
# OVCAR-4 ovarian = system: OVCAR-4 ovarian
# CCRF-CEM leukemia = system: CCRF-CEM leukemia
# SK-MEL-2 melanoma = system: SK-MEL-2 melanoma
# UO-31 renal = system: UO-31 renal
# HCT-116 colon = system: HCT-116 colon
# OVCAR-8 ovarian = system: OVCAR-8 ovarian
# T-47D breast = system: T-47D breast
# SF-268 CNS = system: SF-268 CNS
# RPMI-8226 leukemia = system: RPMI-8226 leukemia
# ACHN renal = system: ACHN renal
# A498 renal = system: A498 renal
# MDA-MB-231 breast = system: MDA-MB-231 breast
# LOX IMVI melanoma = system: LOX IMVI melanoma
# TK-10 renal = system: TK-10 renal
# NCI-H23 lung = system: NCI-H23 lung
# HL-60(TB) leukemia = system: HL-60(TB) leukemia
# MOLT-4 leukemia = system: MOLT-4 leukemia
# NCI-H522 lung = system: NCI-H522 lung
# 786-0 renal = system: 786-0 renal
# UACC-62 melanoma = system: UACC-62 melanoma
# CAKI-1 renal = system: CAKI-1 renal
# MCF7 breast = system: MCF7 breast
# U251 CNS = system: U251 CNS
# SNB-19 CNS = system: SNB-19 CNS
# SW-620 colon = system: SW-620 colon
# DU-145 prostate = system: DU-145 prostate
# KM12 colon = system: KM12 colon
# MALME-3M melanoma = system: MALME-3M melanoma
# HOP-92 NSCLC = system: HOP-92 NSCLC
# BT-549 breast = system: BT-549 breast
# HOP-62 NSCLC = system: HOP-62 NSCLC
# SK-MEL-28 melanoma = system: SK-MEL-28 melanoma
# HT29 colon = system: HT29 colon
# SF-539 CNS = system: SF-539 CNS
# UACC-257 melanoma = system: UACC-257 melanoma
# SR leukemia = system: SR leukemia
# HS 578T breast = system: HS 578T breast
# SN12C renal = system: SN12C renal
# HCC-2998 colon = system: HCC-2998 colon
# NCI-H460 lung = system: NCI-H460 lung
# SNB-75 CNS = system: SNB-75 CNS
# MDA-MB-435 = system: MDA-MB-435
# OVCAR-5 ovarian = system: OVCAR-5 ovarian
# A549 NSCLC = system: A549 NSCLC
# K-562 leukemia = system: K-562 leukemia
# PC-3 prostate = system: PC-3 prostate
# HCT-15 colon = system: HCT-15 colon
# COLO 205 colon = system: COLO 205 colon
# SF-295 CNS = system: SF-295 CNS
# M14 melanoma = system: M14 melanoma
smiles,measurement,setting,value
CC(=O)Nc1c(Br)cc2c(c1Br)Cc1cc(Br)ccc1-2,GI50,SK-OV-3 ovarian,4.22 µM
same,TGI,SK-OV-3 ovarian,17.2 µM
same,GI50,NCI/ADR-RES ovarian,3.38 µM
same,TGI,NCI/ADR-RES ovarian,13.6 µM
same,GI50,EKVX NSCLC,0.392 µM
same,TGI,EKVX NSCLC,13.8 µM
same,GI50,OVCAR-3 ovarian,8.42 µM
same,TGI,OVCAR-3 ovarian,21.1 µM
same,GI50,OVCAR-4 ovarian,2.47 µM
same,TGI,OVCAR-4 ovarian,6.6 µM
same,GI50,CCRF-CEM leukemia,24.1 µM
same,TGI,CCRF-CEM leukemia,> 100 µM
same,GI50,SK-MEL-2 melanoma,12.6 µM
same,TGI,SK-MEL-2 melanoma,32.7 µM
same,GI50,UO-31 renal,0.581 µM
same,TGI,UO-31 renal,13.7 µM
same,GI50,HCT-116 colon,2.76 µM
same,TGI,HCT-116 colon,10.9 µM
same,GI50,OVCAR-8 ovarian,4.62 µM
same,TGI,OVCAR-8 ovarian,18.8 µM
same,GI50,T-47D breast,3.34 µM
same,TGI,T-47D breast,> 100 µM
same,GI50,SF-268 CNS,9.04 µM
same,TGI,SF-268 CNS,41 µM
same,GI50,RPMI-8226 leukemia,50.5 µM
same,TGI,RPMI-8226 leukemia,> 100 µM
same,GI50,ACHN renal,3.17 µM
same,TGI,ACHN renal,14.1 µM
same,GI50,A498 renal,3.87 µM
same,TGI,A498 renal,14.9 µM
same,GI50,MDA-MB-231 breast,5.11 µM
same,TGI,MDA-MB-231 breast,20.3 µM
same,GI50,LOX IMVI melanoma,2.28 µM
same,TGI,LOX IMVI melanoma,6.6 µM
same,GI50,TK-10 renal,12.4 µM
same,TGI,TK-10 renal,26.1 µM
same,GI50,NCI-H23 lung,3.64 µM
same,TGI,NCI-H23 lung,16 µM
same,GI50,HL-60(TB) leukemia,50.5 µM
same,TGI,HL-60(TB) leukemia,> 100 µM
same,GI50,MOLT-4 leukemia,> 100 µM
same,TGI,MOLT-4 leukemia,> 100 µM
same,GI50,NCI-H522 lung,27 µM
same,TGI,NCI-H522 lung,> 100 µM
same,GI50,786-0 renal,1.83 µM
same,TGI,786-0 renal,3.43 µM
same,GI50,UACC-62 melanoma,11.1 µM
same,TGI,UACC-62 melanoma,> 100 µM
same,GI50,CAKI-1 renal,1.98 µM
same,TGI,CAKI-1 renal,10.7 µM
same,GI50,MCF7 breast,9.29 µM
same,TGI,MCF7 breast,96.1 µM
same,GI50,U251 CNS,3.32 µM
same,TGI,U251 CNS,12.4 µM
same,GI50,SNB-19 CNS,12.8 µM
same,TGI,SNB-19 CNS,43 µM
same,GI50,SW-620 colon,3.97 µM
same,TGI,SW-620 colon,15.6 µM
same,GI50,DU-145 prostate,6.44 µM
same,TGI,DU-145 prostate,21.4 µM
same,GI50,KM12 colon,11.6 µM
same,TGI,KM12 colon,55.1 µM
same,GI50,MALME-3M melanoma,7.26 µM
same,TGI,MALME-3M melanoma,53.4 µM
same,GI50,HOP-92 NSCLC,0.675 µM
same,TGI,HOP-92 NSCLC,22.5 µM
same,GI50,BT-549 breast,2.83 µM
same,TGI,BT-549 breast,13.4 µM
same,GI50,HOP-62 NSCLC,2.51 µM
same,TGI,HOP-62 NSCLC,13.9 µM
same,GI50,SK-MEL-28 melanoma,5.54 µM
same,TGI,SK-MEL-28 melanoma,24.4 µM
same,GI50,HT29 colon,24.3 µM
same,TGI,HT29 colon,> 100 µM
same,GI50,SF-539 CNS,13.6 µM
same,TGI,SF-539 CNS,33.2 µM
same,GI50,UACC-257 melanoma,19.3 µM
same,TGI,UACC-257 melanoma,> 100 µM
same,GI50,SR leukemia,6.87 µM
same,TGI,SR leukemia,31.1 µM
same,GI50,HS 578T breast,1.96 µM
same,TGI,HS 578T breast,5.73 µM
same,GI50,SN12C renal,4.67 µM
same,TGI,SN12C renal,18.9 µM
same,GI50,HCC-2998 colon,3.01 µM
same,TGI,HCC-2998 colon,11.8 µM
same,GI50,NCI-H460 lung,2.94 µM
same,TGI,NCI-H460 lung,11.4 µM
same,GI50,SNB-75 CNS,1.24 µM
same,TGI,SNB-75 CNS,3.31 µM
same,GI50,MDA-MB-435,4.15 µM
same,TGI,MDA-MB-435,21.1 µM
same,GI50,OVCAR-5 ovarian,12 µM
same,TGI,OVCAR-5 ovarian,27 µM
same,GI50,A549 NSCLC,3.94 µM
same,TGI,A549 NSCLC,14.8 µM
same,GI50,K-562 leukemia,59.9 µM
same,TGI,K-562 leukemia,> 100 µM
same,GI50,PC-3 prostate,10.3 µM
same,TGI,PC-3 prostate,26.2 µM
same,GI50,HCT-15 colon,12.3 µM
same,TGI,HCT-15 colon,> 100 µM
same,GI50,COLO 205 colon,2.44 µM
same,TGI,COLO 205 colon,13.1 µM
same,GI50,SF-295 CNS,1.61 µM
same,TGI,SF-295 CNS,3.76 µM
same,GI50,M14 melanoma,3.7 µM
same,TGI,M14 melanoma,18.3 µM
